Experimental data reported in US8383643B2, “Spiro compounds useful as inhibitors of stearoyl-coenzyme A delta-9 desaturase” (Merck Canada Inc., priority 2009, dated 2013).
pIC50: −log10 of the molar value.

These compounds were tested against T1, human SCD1 (Homo sapiens, UniProt O00767) (assay: SCD enzyme activity assay, reconstituted human SCD1 desaturase system ([3H]-stearoyl-CoA conversion)). Settings: read-out: IC50 hSCD-1.
T1 construct: made in house; host or cells: baculovirus/Sf9
T1 sequence (O00767 1-359): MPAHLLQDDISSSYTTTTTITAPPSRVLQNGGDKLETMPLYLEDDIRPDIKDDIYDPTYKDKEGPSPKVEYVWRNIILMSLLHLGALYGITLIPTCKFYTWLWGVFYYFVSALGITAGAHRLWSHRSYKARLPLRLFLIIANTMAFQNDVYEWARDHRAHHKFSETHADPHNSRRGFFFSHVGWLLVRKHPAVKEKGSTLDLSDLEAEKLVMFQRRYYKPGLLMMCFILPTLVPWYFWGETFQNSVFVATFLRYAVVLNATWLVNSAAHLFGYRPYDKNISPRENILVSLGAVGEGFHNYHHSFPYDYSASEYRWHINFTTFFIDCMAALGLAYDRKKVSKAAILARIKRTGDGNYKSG
Assay type: biochemical
Description: The potency of compounds of formula I against the stearoyl-CoA desaturase was determined by measuring the conversion of radiolabeled stearoyl-CoA to oleoyl-CoA using rat liver microsome or human SCD1 following previously published procedures with some modifications (Joshi, et al., J. Lipid Res., 18: 32-36 (1977); Talamo, et al., Anal. Biochem, 29: 300-304 (1969)). Liver microsome was prepared from male Wistar or Sprague Dawley rats on a high carbohydrate diet for 3 days (LabDiet #5803, Purina). The livers were homogenized (1:10 w/v) in a buffer containing 250 mM sucrose, 1 mM EDTA, 5 mM DTT and 50 mM Tris-HCl (pH 7.5). After a 100,000×g centrifugation for […], the liver microsome pellet was suspended in a buffer containing 100 mM sodium phosphate, 20% glycerol, 2 mM DTT, and stored at −78° C. Human SCD1 desaturase system was reconstituted using human SCD1 from a baculovirus/Sf9 expression system, cytochrome B5 and cytochrome B5 reductase. Typically, test compound in 2 μL DMSO was incubated for […] at room temperature with 180 μL of the SCD enzyme in a buffer containing 100 mM Tris-HCl (pH 7.5), ATP (5 mM), Coenzyme-A (0.1 mM), Triton X-100 (0.5 mM) and NADH (2 mM). The reaction was initiated by the addition of 20 μL of [^3H]-stearoyl-CoA (final concentration=2 μM, radioactivity concentration=1 μCi/mL). After 10 min, the reaction mixture (80 μL) was mixed with a calcium chloride/charcoal aqueous suspension (100 μL charcoal (10% w/v) plus 25 μL CaCl2 (2N). After centrifugation to precipitate the radioactive fatty acid species, tritiated water released from 9,10-[^3H]-stearoyl-CoA by the SCD enzyme was quantified on a scintillation counter.
In the case of “2-(5-(5-(4-(4-Fluorophenyl)spiro[chromene-2,4′-piperidine]-1′-yl)-1,3,4-thiadiazol-2-yl)-2H-tetrazol-2-yl)acetic acid [Example 7]”, the pIC50 was 9.01. `O=C(O)Cn1nnc(-c2cnc(N3CCC4(C=C(c5ccc(OC(F)(F)F)cc5)c5ccccc5O4)CC3)s2)n1` [Example 3, [5-(2-{-4-[4-(Trifluoromethoxy)phenyl]-1′H-spiro[chromene-2,4′-piperidin]-1′-yl}-1,3-thiazol-5-yl)-2H-tetrazol-2-yl]acetic acid] showed a pIC50 of 8.96. Compound “(5-{5-[4-(2-Chlorophenyl)-1′H-spiro[chromene-2,4′-piperidin]-1′-yl]-1,3,4-thiadiazol-2-yl}-2H-tetrazol-2-yl)acetic acid [Example 4]” has a pIC50 of 8.70. For “(5-{5-[4-(2-Chlorophenyl)-1′H-spiro[chromene-2,4′-piperidin]-1′-yl]-1,3,4-thiadiazol-2-yl}-2H-tetrazol-2-yl)acetic acid [Example 2]”, the pIC50 was 9.21. Work on “(5-{2-[4-(2-Chlorophenyl)-1′H-spiro[chromene-2,4′-piperidin]-1′-yl]-1,3-thiazol-5-yl}-2H-tetrazol-2-yl)acetic acid [Example 1]” yielded a pIC50 of 9.04. Work on “(5-{2-[4-(2,4-Dichlorophenyl)-1′H-spiro[chromene-2,4′-piperidin]-1′-yl]-1,3-thiazol-5-yl}-2H-tetrazol-2-yl)acetic acid [Example 5]” yielded a pIC50 of 8.96. For “2-(5-(2-(4-(4-Fluorophenyl)spiro[chromene-2,4′-piperidine]-1′-yl)thiazol-5-yl)-2H-tetrazol-2-yl)acetic acid [Example 6]”, the pIC50 was 8.89.
